As a reminder, the IC50 is the concentration at which inhibition is half-maximal.

A value given as a limit tells only on which side of the number the result lay.

This is an account of results in patent US11739100B2, “2,3-dihydro-1h-imidazo{1,2-a}pyrimidin-5-one and this 1,2,3,4-tetrahydropyrimido{1,2-a}pyrimidin-6-one derivatives comprising a substituted morpholine, preparation thereof and pharmaceutical use thereof” (SANOFI, priority 2012, dated 2023).

For the experiment, the target named is T1, recombinant Vps34 (Homo sapiens, UniProt Q8NEB9).
T1 construct: purchased Invitrogen PV5126
As to the kind of experiment: Phosphorylation of phosphatidylinositol (PI) by Vps34 in vitro, ADP detected by TR-FRET (HTRF Transcreener ADP). It counts as biochemical. As to conditions: 10 μM ATP, 55 μg/ml PI, approximately 3 nM Vps34, 1 hour at ambient temperature; absolute IC50, mean of two independent experiments; read-out: IC50 activity range. On the technique in general: TR-FRET usually uses a lanthanide donor and a delayed reading to cut background.

T1 sequence (Q8NEB9 whole entry): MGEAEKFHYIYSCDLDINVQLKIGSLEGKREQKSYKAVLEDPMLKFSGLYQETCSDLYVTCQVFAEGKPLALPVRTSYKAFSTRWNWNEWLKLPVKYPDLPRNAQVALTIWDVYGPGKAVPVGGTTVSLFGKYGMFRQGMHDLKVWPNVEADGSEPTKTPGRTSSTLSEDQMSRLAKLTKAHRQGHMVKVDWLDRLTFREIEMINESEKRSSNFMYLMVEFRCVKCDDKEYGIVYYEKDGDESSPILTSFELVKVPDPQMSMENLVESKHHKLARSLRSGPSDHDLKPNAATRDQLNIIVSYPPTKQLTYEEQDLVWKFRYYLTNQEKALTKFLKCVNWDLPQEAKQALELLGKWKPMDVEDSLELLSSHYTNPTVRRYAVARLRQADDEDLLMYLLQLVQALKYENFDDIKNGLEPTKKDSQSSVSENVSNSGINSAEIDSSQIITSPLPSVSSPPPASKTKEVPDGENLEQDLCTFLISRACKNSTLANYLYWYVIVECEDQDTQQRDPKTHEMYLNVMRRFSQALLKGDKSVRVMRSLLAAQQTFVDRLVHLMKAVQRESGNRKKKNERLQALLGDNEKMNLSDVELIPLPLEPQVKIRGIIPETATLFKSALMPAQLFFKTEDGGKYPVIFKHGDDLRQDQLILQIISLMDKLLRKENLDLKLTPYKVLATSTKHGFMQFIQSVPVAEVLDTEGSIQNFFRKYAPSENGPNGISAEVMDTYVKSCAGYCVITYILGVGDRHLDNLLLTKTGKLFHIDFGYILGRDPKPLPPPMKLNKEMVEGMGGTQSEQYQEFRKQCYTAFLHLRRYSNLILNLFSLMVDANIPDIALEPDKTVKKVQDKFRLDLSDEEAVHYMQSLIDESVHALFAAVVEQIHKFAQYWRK

`CC(C)c1noc(CN2c3nc(N4CCOC[C@H]4C)cc(=O)n3CC[C@H]2C(F)(F)F)n1` [Example 226, (S)-9-(3-Isopropyl-[1,2,4]oxadiazol-5-yl-methyl)-2-((R)-3-methylmorpholin-4-yl)-8-trifluoromethyl-6,7,8,9-tetrahydro-pyrimido[1,2-a]-pyrimidin-4-one]: the IC50 was under 10 nM.
In the case of `C[C@@H]1COCCN1c1cc(=O)n2c(n1)N(Cc1nc(C3CC3)no1)[C@H](C(F)(F)F)CC2` [Example 227, (S)-9-(3-Cyclopropyl-[1,2,4]oxadiazol-5-yl-methyl)-2-((R)-3-methylmorpholin-4-yl)-8-trifluoromethyl-6,7,8,9-tetrahydro-pyrimido[1,2-a]-pyrimidin-4-one] it was under 10 nM.
The result for `C[C@@H]1COCCN1c1cc(=O)n2c(n1)N(Cc1nc(C(C)(C)C)no1)[C@H](C(F)(F)F)CC2` [Example 228, (S)-9-(3-tert-Butyl-[1,2,4]oxadiazol-5-yl-methyl)-2-((R)-3-methylmorpholin-4-yl)-8-trifluoromethyl-6,7,8,9-tetrahydro-pyrimido[1,2-a]-pyrimidin-4-one] reads under 10 nM; that for `CC(C)Oc1ccc(CN2c3nc(N4CCOC[C@H]4C)cc(=O)n3CC[C@H]2C(F)(F)F)cn1` [Example 229, (S)-9-(6-Isopropoxy-pyridin-3-ylmethyl)-2-((R)-3-methyl-morpholin-4-yl)-8-trifluoromethyl-6,7,8,9-tetrahydro-pyrimido[1,2-a]-pyrimidin-4-one], under 10 nM; that for `CC(C)Oc1ncccc1CN1c2nc(N3CCOC[C@H]3C)cc(=O)n2CC[C@H]1C(F)(F)F` [Example 230, (S)-9-(2-Isopropoxy-pyridin-3-ylmethyl)-2-((R)-3-methyl-morpholin-4-yl)-8-trifluoromethyl-6,7,8,9-tetrahydro-pyrimido[1,2-a]-pyrimidin-4-one], under 10 nM.
The result for `C[C@@H]1COCCN1c1cc(=O)n2c(n1)N(Cc1nccs1)[C@H](C(F)(F)F)CC2` [Example 231, (S)-2-((R)-3-Methyl-morpholin-4-yl)-9-thiazol-2-ylmethyl-8-trifluoromethyl-6,7,8,9-tetrahydro-pyrimido[1,2-a]-pyrimidin-4-one] reads under 10 nM; that for `C[C@@H]1COCCN1c1nc2n(c(=O)c1F)CC[C@@H](C(F)(F)F)N2Cc1nccs1` [Example 232, (S)-3-Fluoro-2-((R)-3-methylmorpholin-4-yl)-9-thiazol-2-ylmethyl-8-trifluoromethyl-6,7,8,9-tetrahydro-pyrimido[1,2-a]-pyrimidin-4-one], under 10 nM; that for `C[C@@H]1COCCN1c1cc(=O)n2c(n1)N(CC(=O)N1CCCCC1)[C@H](C(F)(F)F)CC2` [Example 233, (S)-2-((R)-3-Methyl-morpholin-4-yl)-9-(2-oxo-2-piperidin-1-yl-ethyl)-8-trifluoromethyl-6,7,8,9-tetrahydro-pyrimido[1,2-a]-pyrimidin-4-one], under 10 nM.
In the case of `C[C@@H]1COCCN1c1cc(=O)n2c(n1)N(CC(=O)N1CCOCC1)[C@H](C(F)(F)F)CC2` [Example 234, (S)-2-((R)-3-Methyl-morpholin-4-yl)-9-(2-morpholin-4-yl-2-oxo-ethyl)-8-trifluoromethyl-6,7,8,9-tetrahydro-pyrimido[1,2-a]-pyrimidin-4-one], the IC50 is 10 to 100 nM.
The result for `C[C@@H]1COCCN1c1nc2n(c(=O)c1F)CC[C@@H](C(F)(F)F)N2CC(=O)N1CCOCC1` [Example 235, (S)-3-Fluoro-2-((R)-3-methylmorpholin-4-yl)-9-(2-morpholin-4-yl-2-oxoethyl)-8-trifluoromethyl-6,7,8,9-tetrahydro-pyrimido[1,2-a]-pyrimidin-4-one] reads 10 to 100 nM; that for `C[C@@H]1COCCN1c1cc(=O)n2c(n1)N(CC(=O)Nc1ccccc1)[C@H](C(F)(F)F)CC2` [Example 236, 2-[(S)-8-((R)-3-Methyl-morpholin-4-yl)-6-oxo-2-trifluoromethyl-3,4-dihydro-2H,6H-pyrimido[1,2-a]-pyrimidin-1-yl]-N-phenyl-acetamide], 10 to 100 nM.
The result for `C[C@@H]1COCCN1c1nc2n(c(=O)c1F)CC[C@@H](C(F)(F)F)N2CC(=O)N1CCCCC1` [Example 237, (S)-3-Fluoro-2-((R)-3-methylmorpholin-4-yl)-9-(2-oxo-2-piperidin-1-ylethyl)-8-trifluoromethyl-6,7,8,9-tetrahydro-pyrimido[1,2-a]-pyrimidin-4-one] reads under 10 nM; that for `CC(=O)N1c2nc(N3CCOC[C@H]3C)cc(=O)n2CC[C@H]1C(F)(F)F` [Example 238, (S)-9-Acetyl-2-((R)-3-methylmorpholin-4-yl)-8-trifluoromethyl-6,7,8,9-tetrahydro-pyrimido[1,2-a]-pyrimidin-4-one], over 100 nM.
In the case of `C[C@@H]1COCCN1c1cc(=O)n2c(n1)N(Cc1ncco1)[C@](C)(C(F)(F)F)CC2` [Example 239, (S)-8-Methyl-2-((R)-3-methylmorpholin-4-yl)-9-oxazol-2-ylmethyl-8-trifluoromethyl-6,7,8,9-tetrahydro-pyrimido[1,2-a]-pyrimidin-4-one] it was under 10 nM.
Take `Cc1nc(CN2c3nc(N4CCOC[C@H]4C)cc(=O)n3C[C@@]2(C)C(F)(F)F)no1` [Example 240, (S)-2-Methyl-7-((R)-3-methylmorpholin-4-yl)-1-(5-methyl-[1,2,4]oxadiazol-3-yl-methyl)-2-trifluoromethyl-2,3-dihydro-1H-imidazo[1,2-a]-pyrimidin-5-one]: the IC50 is under 10 nM.
As to `C[C@@H]1COCCN1c1cc(=O)n2c(n1)N(CC(=O)C1CC1)[C@H](C(F)(F)F)CC2` [Example 241, (S)-9-(2-Cyclopropyl-2-oxoethyl)-2-((R)-3-methylmorpholin-4-yl)-8-trifluoromethyl-6,7,8,9-tetrahydro-pyrimido[1,2-a]-pyrimidin-4-one], the IC50 was under 10 nM.
Turning to `C[C@@H]1COCCN1c1cc(=O)n2c(n1)N(CC(=O)c1nccs1)[C@H](C(F)(F)F)CC2` [Example 242, (S)-2-((R)-3-Methyl-morpholin-4-yl)-9-(2-oxo-2-thiazol-2-yl-ethyl)-8-trifluoromethyl-6,7,8,9-tetrahydro-pyrimido[1,2-a]-pyrimidin-4-one], the IC50 is under 10 nM.
The result for `C[C@@H]1COCCN1c1cc(=O)n2c(n1)N(CC(=O)OC1CCCC1)[C@H](C(F)(F)F)CC2` [Example 243, [(S)-8-((R)-3-Methyl-morpholin-4-yl)-6-oxo-2-trifluoromethyl-3,4-dihydro-2H,6H-pyrimido[1,2-a]-pyrimidin-1-yl]acetic acid cyclopentyl ester] reads under 10 nM; that for `C[C@@H]1COCCN1c1cc(=O)n2c(n1)N(CC(=O)C1CCCC1)[C@H](C(F)(F)F)CC2` [Example 244, (S)-9-(2-Cyclopentyl-2-oxoethyl)-2-((R)-3-methylmorpholin-4-yl)-8-trifluoromethyl-6,7,8,9-tetrahydro-pyrimido[1,2-a]-pyrimidin-4-one], under 10 nM.
The result for `C[C@@H]1COCCN1c1cc(=O)n2c(n1)N(CC(=O)C1CCOCC1)[C@H](C(F)(F)F)CC2` [Example 245, (S)-2-((R)-3-Methyl-morpholin-4-yl)-9-[2-oxo-2-(tetrahydro-pyran-4-yl)ethyl]-8-trifluoromethyl-6,7,8,9-tetrahydro-pyrimido[1,2-a]-pyrimidin-4-one] reads under 10 nM; that for `CC(C)c1nc(CN2c3nc(N4CCOC[C@H]4C)c(F)c(=O)n3CC[C@H]2C(F)(F)F)no1` [Example 246, (S)-3-Fluoro-9-(5-isopropyl-[1,2,4]oxadiazol-3-yl-methyl)-2-((R)-3-methylmorpholin-4-yl)-8-trifluoromethyl-6,7,8,9-tetrahydro-pyrimido[1,2-a]-pyrimidin-4-one], under 10 nM; that for `C[C@@H]1COCCN1c1nc2n(c(=O)c1F)CC[C@@H](C(F)(F)F)N2Cc1noc(C2CC2)n1` [Example 247, (S)-9-(5-Cyclopropyl-[1,2,4]oxadiazol-3-yl-methyl)-3-fluoro-2-((R)-3-methyl-morpholin-4-yl)-8-trifluoromethyl-6,7,8,9-tetrahydro-pyrimido[1,2-a]-pyrimidin-4-one], under 10 nM.
In the case of `CC(C)c1noc(CN2c3nc(N4CCOC[C@H]4C)c(F)c(=O)n3CC[C@H]2C(F)(F)F)n1` [Example 248, (S)-3-Fluoro-9-(3-isopropyl-[1,2,4]oxadiazol-5-yl-methyl)-2-((R)-3-methylmorpholin-4-yl)-8-trifluoromethyl-6,7,8,9-tetrahydro-pyrimido[1,2-a]-pyrimidin-4-one] it was under 10 nM.
With `C[C@@H]1COCCN1c1nc2n(c(=O)c1F)CC[C@@H](C(F)(F)F)N2Cc1nc(C2CC2)no1` [Example 249, (S)-9-(3-Cyclopropyl-[1,2,4]oxadiazol-5-yl-methyl)-3-fluoro-2-((R)-3-methyl-morpholin-4-yl)-8-trifluoromethyl-6,7,8,9-tetrahydro-pyrimido[1,2-a]-pyrimidin-4-one], the IC50 was under 10 nM.
As to `C[C@@H]1COCCN1c1nc2n(c(=O)c1F)CC[C@@H](C(F)(F)F)N2Cc1nc(C(C)(C)C)no1` [Example 250, (S)-9-(3-tert-Butyl-[1,2,4]oxadiazol-5-yl-methyl)-3-fluoro-2-((R)-3-methyl-morpholin-4-yl)-8-trifluoromethyl-6,7,8,9-tetrahydro-pyrimido[1,2-a]-pyrimidin-4-one], the IC50 is under 10 nM.
The result for `C[C@@H]1COCCN1c1nc2n(c(=O)c1F)CC[C@@H](C(F)(F)F)N2Cc1nc(C(F)(F)F)no1` [Example 251, (S)-3-Fluoro-2-((R)-3-methylmorpholin-4-yl)-8-trifluoromethyl-9-(3-trifluoromethyl-[1,2,4]oxadiazol-5-yl-methyl)-6,7,8,9-tetrahydro-pyrimido[1,2-a]-pyrimidin-4-one] reads under 10 nM.
In the case of `CC(C)C(=O)CN1c2nc(N3CCOC[C@H]3C)cc(=O)n2CC[C@@]1(C)C(F)(F)F` [Example 252, (S)-8-Methyl-2-((R)-3-methylmorpholin-4-yl)-9-(3-methyl-2-oxo-butyl)-8-trifluoromethyl-6,7,8,9-tetrahydro-pyrimido[1,2-a]-pyrimidin-4-one] it was under 10 nM.
